Laboratory results from patent publication US8853213B2, “Bicyclic compound for modulating G protein-coupled receptors” (Hanmi Pharm. Co., Ltd, priority 2011, dated 2014).

What follows are compounds tested against T1, GPR119 (Homo sapiens, UniProt Q8TDV5) (assay: Controlling Effect of GPR119 in CRE-bla CHO-K1 Cells (EC50)). Details: GPR119 CRE-bla CHO-K1 cell line, 5 hr incubation with compound, β-lactamase LiveBLAzer-FRET B/G readout; read-out: controlling effect against GPR119 in CRE-bla CHO-K1 cell line (EC50).
T1 construct: host or cells: CHO-K1 (CRE-bla reporter, doxycycline-induced)
T1 sequence (Q8TDV5 1-335): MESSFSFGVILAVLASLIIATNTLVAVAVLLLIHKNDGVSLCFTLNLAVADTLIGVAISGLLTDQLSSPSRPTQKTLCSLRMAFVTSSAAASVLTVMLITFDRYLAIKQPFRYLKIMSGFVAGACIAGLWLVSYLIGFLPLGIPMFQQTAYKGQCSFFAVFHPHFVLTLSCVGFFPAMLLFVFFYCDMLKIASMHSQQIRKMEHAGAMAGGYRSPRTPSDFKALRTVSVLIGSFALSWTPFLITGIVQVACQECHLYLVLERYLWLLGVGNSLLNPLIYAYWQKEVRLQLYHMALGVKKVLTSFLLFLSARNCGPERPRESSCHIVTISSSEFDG
Assay type: cell-based
Summary of the method: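 CHO-K1 cells carrying GPR119 and a CRE-β-lactamase reporter, induced with doxycycline for 16-20 h at 37° C, then exposed to compounds in 10-fold dilutions for 5 h. CCF4-AM FRET substrate added for 2 h at room temperature; blue/green fluorescence (409 ex, […]) read and EC50 derived.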

SMILES	EC50
CC(C)c1noc(N2CCC(Oc3ncnc4c(-c5ccc(OC(F)(F)F)cc5)csc34)CC2)n1 [Example 99, 4-[1-(3-isopropyl-[1,2,4]oxadiazol-5-yl)-piperidin-4-yloxy]-7-(4-trifluoromethoxy-phenyl)-thieno[3,2-d]pyrimidine]	100 to 1000 nM
CC(C)c1noc(N2CCC(Oc3ncnc4c(-c5ccc(SC(F)(F)F)cc5)csc34)CC2)n1 [Example 100, 4-[1-(3-isopropyl-[1,2,4]oxadiazol-5-yl)-piperidin-4-yloxy]-7-(4-trifluoromethylsulfanyl-phenyl)-thieno[3,2-d]pyrimidine]	> 1000 nM
CC(C)c1noc(N2CCC(Oc3ncnc4c(-c5ccc(S(=O)(=O)C(F)(F)F)cc5F)csc34)CC2)n1 [Example 101, 7-(2-fluoro-4-trifluoro(methanesulfonyl)phenyl)-4-[1-(3-isopropyl-[1,2,4]oxadiazol-5-yl)-piperidin-4-yloxy]-thieno[3,2-d]pyrimidine]	> 1000 nM
CC(C)c1noc(N2CCC(Oc3ncnc4c(-c5ccc(S(=O)(=O)C6CC6)cc5)csc34)CC2)n1 [Example 104, 7-(4-cyclopropylsulfonyl-phenyl)-4-[1-(3-isopropyl-[1,2,4]oxadiazol-5-yl)-piperidin-4-yloxy]-thieno[3,2-d]pyrimidine]	< 100 nM
CC(C)c1noc(N2CCC(Oc3ncnc4c(-c5ccc(S(=O)(=O)C(C)C)cc5)csc34)CC2)n1 [Example 105, 4-[1-(3-isopropyl-[1,2,4]oxadiazol-5-yl)-piperidin-4-yloxy]-7-(4-isopropylsulfonyl-phenyl)-thieno[3,2-d]pyrimidine]	< 100 nM
CCCS(=O)(=O)c1ccc(-c2csc3c(OC4CCN(c5nc(C(C)C)no5)CC4)ncnc23)cc1 [Example 106, 4-[1-(3-isopropyl-[1,2,4]oxadiazol-5-yl)-piperidin-4-yloxy]-7-(4-propylsulfonyl-phenyl)-thieno[3,2-d]pyrimidine]	< 100 nM
CCCS(=O)(=O)c1ccc(-c2csc3c(OC4CCN(c5nc(C(C)C)no5)CC4)ncnc23)c(F)c1 [Example 107, 7-(2-fluoro-(4-propylsulfonyl)-phenyl)-4-[1-(3-isopropyl-[1,2,4]oxadiazol-5-yl)-piperidin-4-yloxy]-thieno[3,2-d]pyrimidine]	< 100 nM
CC(C)c1noc(N2CCC(Oc3ncnc4c(-c5ccc(S(=O)(=O)C6CCCC6)cc5)csc34)CC2)n1 [Example 108, 7-(4-cyclopentylsulfonyl-phenyl)-4-[1-(3-isopropyl-[1,2,4]oxadiazol-5-yl)-piperidin-4-yloxy]-thieno[3,2-d]pyrimidine]	< 100 nM
CS(=O)(=O)c1ccc(-c2csc3c(NC4CCNCC4)ncnc23)cc1 [Example 110, 7-(4-methanesulfonyl-phenyl)-N-(piperidin-4-yl)thieno[3,2-d]pyrimidin-4-amine]	> 1000 nM
CCc1cnc(N2CCC(Nc3ncnc4c(-c5ccc(S(C)(=O)=O)cc5)csc34)CC2)nc1 [Example 111, N-(1-(5-ethylpyrimidin-2-yl)piperidin-4-yl)-7-(4-methanesulfonyl-phenyl)thieno[3,2-d]pyrimidin-4-amine]	> 1000 nM
CCc1cnc(N2CCC(N(C)c3ncnc4c(-c5ccc(S(C)(=O)=O)cc5)csc34)CC2)nc1 [Example 114, [1-(5-ethylpyrimidin-2-yl)-piperidin-4-yl]-[7-(4-methanesulfonyl-phenyl)-thieno[3,2-d]pyrimidin-4-yl]-methylamine]	> 1000 nM
CCN(c1ncnc2c(-c3ccc(S(C)(=O)=O)cc3)csc12)C1CCN(c2ccc(C(F)(F)F)cn2)CC1 [Example 115, Ethyl-[7-(4-methanesulfonyl-phenyl)-thieno[3,2-d]pyrimidin-4-yl]-(5′-trifluoromethyl-3,4,5,6-tetrahydro-2H-[1,2′]bipyridinyl-4-yl)amine]	> 1000 nM
CC(C)c1noc(C2CCN(c3ncnc4c(-c5ccc(S(C)(=O)=O)cc5)cn(C)c34)CC2)n1 [Example 117, 3-isopropyl-5-(1-(5-methyl-7-(4-methanesulfonyl-phenyl)-5H-pyrrolo[3,2-d]pyrimidin-4-yl)piperidin-4-yl)-1,2,4-oxadiazole]	100 to 1000 nM

Second part, the compound after the results:

EC50	SMILES
100 to 1000 nM	COC(=O)c1ccc(-c2csc3c(OC4CCN(c5nc(C(C)C)no5)CC4)ncnc23)cc1 [Example 102, 4-{4-[1-(3-isopropyl-[1,2,4]oxadiazol-5-yl)-piperidin-4-yloxy]-thieno[3,2-d]pyrimidin-7-yl}-benzoic acid methylester]
< 100 nM	CC(=O)c1ccc(-c2csc3c(OC4CCN(c5nc(C(C)C)no5)CC4)ncnc23)cc1 [Example 103, 1-(4-{4-[1-(3-isopropyl-[1,2,4]oxadiazol-5-yl)-piperidin-4-yloxy]-thieno[3,2-d]pyrimidin-7-yl}-phenyl)-ethanone]
100 to 1000 nM	CC(C)(C)OC(=O)N1CCC(Nc2ncnc3c(-c4ccc(S(C)(=O)=O)cc4)csc23)CC1 [Example 109, tert-butyl 4-(7-(4-methanesulfonyl-phenyl)thieno[3,2-d]pyrimidin-4-ylamino)piperidin-1-carboxylate]
< 100 nM	CN(c1ncnc2c(-c3ccc(S(C)(=O)=O)cc3)csc12)C1CCN(C(=O)OC(C)(C)C)CC1 [Example 112, tert-butyl 4-(methyl(7-(4-methanesulfonyl-phenyl)thieno[3,2-d]pyrimidin-4-yl)amino)piperidin-1-carboxylate]
> 1000 nM	Cn1cc(-c2ccc(S(C)(=O)=O)cc2)c2ncnc(NC3CCN(C(=O)OC(C)(C)C)CC3)c21 [Example 116, tert-butyl 4-(5-methyl-7-(4-methanesulfonyl-phenyl)-5H-pyrrolo[3,2-d]pyrimidin-4-ylamino)piperidin-1-carboxylate]
100 to 1000 nM	CC(C)c1noc(C2CCN(c3ncnc4c(-c5ccc(-n6cnnn6)cc5)csc34)CC2)n1 [Example 118, 5-(1-(7-(4-(1H-tetrazol-1-yl)phenyl)thieno[3,2-d]pyrimidin-4-yl)piperidin-4-yl)-3-iso propyl-1,2,4-oxadiazole]
< 100 nM	CC(C)(C)c1noc(N2CCC(Oc3ncnc4c(-c5ccc(-n6cncn6)cc5)csc34)CC2)n1 [Example 119, 5-(4-(7-(4-(1H-1,2,4-triazol-1-yl)phenyl)thieno[3,2-d]pyrimidin-4-yloxy)piperidin-1-yl)-3-tert-butyl-1,2,4-oxadiazole]
< 100 nM	Cn1cc(-c2ccc(-n3cnnn3)cc2)c2ncnc(OC3CCN(C(=O)OC(C)(C)C)CC3)c21 [Example 120, tert-butyl 4-(7-(4-(1H-tetrazol-1-yl)phenyl)-5-methyl-5H-pyrrolo[3,2-d]pyrimidin-4-yloxy)piperidin-1-carboxylate]
> 1000 nM	CCc1cnc(N2CCC(Oc3ncnc4c(-c5ccc(N)cc5)cn(C)c34)CC2)nc1 [Example 121, 4-(4-(1-(5-ethylpyrimidin-2-yl)piperidin-4-yloxy)-5-methyl-5H-pyrrolo[3,2-d]pyrimidin-7-yl)benzenamine]
< 100 nM	CCc1cnc(N2CCC(Oc3ncnc4c(-c5ccc(-n6cnnn6)cc5)cn(C)c34)CC2)nc1 [Example 122, 7-(4-(1H-tetrazol-1-yl)phenyl)-4-(1-(5-ethylpyrimidin-2-yl)piperidin-4-yloxy)-5-methyl-5H-pyrrolo[3,2-d]pyrimidine]
< 100 nM	Cn1cc(-c2ccc(-n3cnnn3)cc2)c2ncnc(OC3CCN(c4ncc(C(F)(F)F)cn4)CC3)c21 [Example 123, 7-(4-(1H-tetrazol-1-yl)phenyl)-5-methyl-4-(1-(5-(trifluoromethyl)pyrimidin-2-yl)piperidin-4-yloxy)-5H-pyrrolo[3,2-d]pyrimidine]
> 1000 nM	Cn1cc(-c2ccc(-n3cnnn3)cc2)c2ncnc(O[C@H]3CCN(C(=O)OC(C)(C)C)C3)c21 [Example 125, (S)-tert-butyl 3-[5-methyl-7-(4-tetrazol-1-yl-phenyl)-5H-pyrrolo[3,2-d]pyrimidin-4-yloxy)pyrrolidin-1-carboxylate]
